Legend:
Sp7 (Osterix) = assay: Gene expression analysis (qPCR, ΔΔCt) in HuMSCs: Sp7; assay type: cell-based, human; settings: 7 days
Method: (§1) Human umbilical cord derived mesenchymal stem cells (HuMSCs) were plated in a 24 well plate at a density of 30,000 cells per well. Samples were divided as controls—no drug, no differentiation media; osteogenic control—no drug, DMEM media supplemented with factors to induce osteogenesis including dexamethasone, L-ascorbic acid, and beta-glycerol phosphate; 2.5, 5, and 10 μM wells consisted of DMEM media supplemented respective concentrations of UC2288. Media was renewed in all wells every other day. After 7 days, all samples were processed to extract total RNA. Next, cDNA was produced and qPCR was performed for gene expression analyses. Three genes of interest were analyzed-RunX2, Sp7 (Osterix), and CDKN1A (p21). RunX2 and Sp7 are genes responsible for osteoblast differentiation and take part in osteogenesis. To analyze the data, the ΔΔCt method was employed against an 18s endogenous control and DMEM media without differentiation factors or drugs as reference controls. The ΔΔCt can be described as:
(§2) Relative mRNA expression of sample=2^−ΔΔCt of sample,
(§3) where ΔΔCt of sample=(Ct of sample−Ct of 18s of sample)−(Ct of reference control−Ct of 18s of reference control).

CDKN1A (p21) = assay: Gene expression analysis (qPCR, ΔΔCt) in HuMSCs: p21; assay type: cell-based, human; settings: 7 days
Method: as §1, §2, §3

MSCs [1] = assay: Cytotoxicity (MTT assay) of UC2288 in purified MSCs; assay type: cell-based, mouse (C57BL/6)
Method: All procedures with animals were approved by the IACUC at the University of Wisconsin-Milwaukee. The mice used for this study were C57BL/6 (Charles River, MA). Fifteen 8-week-old male mice were euthanized by CO2 inhalation. After checking for a heartbeat, a cervical dislocation was performed followed by checking for any signs of breathing again for precautionary measures. After confirming that there were no signs of breathing, the tibia and the femur were extracted and placed in phosphate buffered saline (PBS) (Corning Inc., NY). A bone marrow flush with a 23-gauge, 0.5-inch needle (Becton Dickinson, NJ) was performed in a biosafety hood and the pelleted bone marrow cell suspension was plated in a 60×15 mm Primaria cell culture dish (Corning Inc., NY) in MesenCult Basal Medium (Mouse) that contained 50 mL MesenCult 10× Supplement (Mouse) and 0.5 mL MesenPure 1000× (STEMCELL Technologies, Vancouver, Canada). The plates were incubated at 37° C. in a 5% CO2 humidified atmosphere. After 24 hours, half the medium volume was removed, and fresh medium was added. The media in the cultures were renewed every other day. As the cells reached confluency, they were detached by treatment with 0.5% Trypsin-EDTA (Thermo Fisher Scientific, MA) and replated into a 100×20 mm Primaria cell culture dish (Corning Inc.) and eventually into a T-25-cm^2 Primaria flask (Corning Inc, NY). […]

RunX2 = assay: Gene expression analysis (qPCR, ΔΔCt) in HuMSCs: RunX2; assay type: cell-based, human; settings: 7 days
Method: as §1, §2, §3

fractured tibiae = assay: MicroCT imaging of fracture healing in mice after post-fracture UC2288 injection (Example 4); assay type: in vivo; settings: five 0.1 mL 10 μM injections at days 3, 5, 7, 10, 14; 21 days post-injury
Method: Male wildtype mice (n=10) aged between 8-10 weeks were selected for this study. Future experiments will also include aged mice (e.g., ˜18 months of age). […] The mice had their tibiae fractured at the beginning of the study. Five mice were considered controls and received five injections of saline solution at days 3, 5, 7, 10, and 14 post-injury. The other five mice were injected five times with 0.1 mL 10 μM of UC2288 solution at days 3, 5, 7, 10, and 14 post-injury. At 21 days post-injury, mice were sacrificed, and their tibiae were excised. These bones were imaged using a microCT system that can differentiate between bone and soft tissue.

[2] = system: transverse tibial fracture; assay: Microtomography imaging of transverse tibial fracture callus (Example 6); assay type: in vivo, C57BI/6 wildtype mice; settings: 10 μM, 0.1 mL at days 3, 5, 7, 10, 14; 4 weeks post-fracture
Method: All protocols were approved by IACUC at UWM. C57BI/6 wildtype mice at 8 weeks of age were administered a transverse tibial fracture. The mice were injected with 10 μM of UC2288 solution at a volume of 0.1 mL at days 3, 5, 7, 10, and 14. The mice were sacrificed 4 weeks post-fracture and their tibiae were excised. The bone samples were placed in 10% formalin for two days followed by placement in 70% ethanol until they were ready for microCT imaging. Each sample was placed on a holder and few drops of phosphate buffered saline were placed along with the sample. The sample was scanned using a microCt (Zeiss Xradia Versa X-ray microscope) scanner at a 15 μm thickness per slice. The data was contoured using MIMICS (Materialise NV) followed by data analysis via Python. […] See FIG. 7A-B. The black and white images show where bone was automatically thresholded via ImageJ.

MSCs [3] = assay: Osteogenic differentiation of MSCs, Alizarin Red S staining of calcium deposits; assay type: cell-based, mouse (C57BL/6)
Method: In order to test whether UC2288 can improve osteogenic capacity of MSCs, the purified MSCs were differentiated into osteoblasts after interaction with UC2288. For osteogenic differentiation experiment, 84,000 cells were added into wells of a 24-well plate (Corning Inc., NY). Each concentration of UC2288, i.e., 2.5 μM, 5 μM, and 10 μM were tested in triplicates along with their controls which had no drugs but simply DMEM media and incubated for a period of 24- and 48-hours. After the designated time periods, the drug solutions were aspirated out of each well. To test for osteogenesis at different concentrations, relevant media were added to cells and renewed every other day for up to 21 days.
The osteogenic media consisted of 1 nM of dexamethasone, 50 μg/mL of L-Ascorbic acid, and 10 mM of β-glycerophosphate (Sigma-Aldrich, MO) in 50 mL DMEM.
After 21 days of culture, cells were stained following the appropriate staining protocol. […]
This experiment tested the ability of cells that interacted with the UC2288 drug to generate bone-forming osteoblast cells. […] After staining each well by following an osteogenic staining protocol, the area of the stains was analyzed using ImageJ and the data were graphed in GraphPad Prism. […]

SMILES: O=C(Nc1ccc(Cl)c(C(F)(F)F)c1)N[C@H]1CC[C@H](Oc2ccc(C(F)(F)F)cn2)CC1 [UC2288, 1-(4-chloro-3-(trifluoromethyl)phenyl)-3-((1r,4r)-4-((5-(trifluoromethyl)pyridin-2-yl)oxy)cyclohexyl)urea]
- Sp7 expression compared to the osteogenic positive control (Sp7 (Osterix); 5 μM): increased osteogenic potential
- Sp7 expression compared to the osteogenic positive control (Sp7 (Osterix); 10 μM): increased osteogenic potential
- Sp7 expression compared to the control (Sp7 (Osterix); all concentrations (2.5, 5, 10 μM)): increased osteogenic gene expression
- expression of p21 in HuMSCs (CDKN1A (p21); 2.5 μM): reduced p21 expression
- expression of p21 in HuMSCs (CDKN1A (p21); 5 μM): reduced p21 expression
- expression of p21 in HuMSCs (CDKN1A (p21); 10 μM): increased expression
- proliferation of the MSCs (MTT, absorbance 540 nm) versus positive control DMEM media (MSCs [1]; 2.5, 5 and 10 μM UC2288, 24 hours): No significant difference
- proliferation of the MSCs (MTT, absorbance 540 nm) versus positive control DMEM media (MSCs [1]; 2.5, 5 and 10 μM UC2288, 48 hours): No significant difference
- effect on osteogenic markers compared to 2.5 and 10 μM (RunX2; 5 μM): most significant effect
- RunX2 expression compared to controls (RunX2; 2.5, 5, 10 μM): increased osteogenic potential
- RunX2 expression compared to the osteogenic control (RunX2; 2.5, 5, 10 μM): less than the osteogenic control
- bone formation/healing versus saline control mice (microCT) (fractured tibiae): more bone formation/healing
- callus Surface Area (microCT) [2]: 0.1147 mm^2
- callus Surface Area Pixels (microCT) [2]: 7611878.877 Pixels
- callus Volume (microCT) [2]: 0.4206 mm^3
- callus Volume Pixels (microCT) [2]: 27919486 Pixels
- area of osteogenic stained cells, comparison of 2.5, 5 and 10 μM (MSCs [3]; 5 μM UC2288 at 24 hr): most osteogenic stained cells
- staining for calcium deposits in osteoblasts from MSCs versus DMEM control (MSCs [3]; 10 μM UC2288 for 24 hr, 21 days osteogenic culture): Greater staining
